Test results from patent US20250092039A1, “GLUTARIMIDE-CONTAINING PAN-KRAS-MUTANT DEGRADER COMPOUNDS AND USES THEREOF” (Tiger Biotherapeutics Inc., priority 2022, published 2025).

How the values were obtained:
SW620 cells = test: 3D cell growth inhibition of SW620 cells carrying endogenous KRAS G12V mutation (CellTiter-Glo 3D, GI50); type: cell-based; settings: Homo sapiens, SW-620, 144 h; SW620 cells, 6 days; read-out: SW620 3D cell growth GI50
Description: The following day, the test compound was administered to the cells by using 1000× compound stock solution prepared in DMSO at various concentrations. 1000× compound stock solution was first diluted in culturing medium to 10×, then 10 μL compound medium was added to each well in the cell plates. After administration of the compound, the cells were then incubated at 37° C. for 6 days. Upon completion, the plates were equilibrated at room temperature for approximately 10 minutes. 100 μL of CellTiter-Glo® 3D Reagent (Promega) was added to each well. The plates were then incubated at room temperature for 30 minutes and luminescence was recorded by EnSpire plate reader (PerkinElmer).

KRAS G12V = KRAS G12V (Homo sapiens (Human), UniProt P01116, G12V); test: KRAS G12V degradation in SW620 cells (Western blot, DC50); type: cell-based; settings: 24 hours
Description: SW620 (KRAS G12V homozygous), AsPC1 (KRAS G12D homozygous), MIA PaCa2 (KRAS G12C homozygous), A549 (KRAS G12S homozygous) and MCF7 (KRAS WT) cells were obtained from American Type Culture Collection (ATCC). […] The following day, the test compound was administered to the cells by using 1000× compound stock solution prepared in DMSO at various concentrations. After administration of the compound, the cells were then incubated at 37° C. for 24 hours. Upon completion, the cells were washed with PBS and protein was collected in Laemmli sample buffer (1×; VWR International). Proteins in cell lysate were separated by SDS-PAGE and transferred to Odyssey nitrocellulose membranes (Licor) with iblot® dry blotting transfer system (ThermoFisher). Nonspecific binding was blocked by incubating membranes with Intercept Blocking Buffer (Licor) for 1 hour at room temperature with gentle shaking. […] After washing 3 times with TBS-T, the membranes were incubated with IRDye® 800CW goat anti-rabbit IgG (1:20,000, Licor) and IRDye® 680RD goat anti-mouse IgG (1:20,000, Licor) for 1 hour. After TBS-T washes, membranes were rinsed in TBS and Western blot images were acquired by Odyssey CLx (LI-COR Biosciences).
The signal intensity of target proteins was calculated using ImageStudio software. KRAS fluorescent intensity (FLU) from DMSO (vehicle) treatment was set as 100%. Relative KRAS expression level was determined by the following formula: […]
The percentage of KRAS expression was calculated using Microsoft Excel. The half-maximal degradation concentration (DCso) values were generated by GraphPad Prism (Version 9) using the dose-response equation of variable slope (four parameters).

KRAS-G12V/RAF1 = KRAS-G12V/RAF1 (Homo sapiens (Human), UniProt P01116, G12V); test: KRAS/RAF1 binding inhibition assay (AlphaScreen)
Description: Binding affinity against GTP-bound KRAS of the compounds disclosed herein was measured by monitoring the interaction of guanosine 5′-[β,γ-imido]triphosphate-bound (GppNHp-bound) KRAS with the RBD domain of RAF1 in the presence of the test compound. […] The test compounds in 2% DMSO (final concentration) at various concentrations were then added to the reaction mixture and incubated for 60 minutes at 4° C.
Raw ALphaScreen data were converted to a percentage of inhibition (relative to DMSO) using the following equations: • a) For a given test compound concentration X: […]
The IC50 values were determined by nonlinear regression of plots of [inhibitor] vs. percentage of inhibition with variable slope, analyzed using GraphPad Prism (Version 9).

KRAS G12V, sequence (P01116-2 other isoform, or with tags, fused parts or gaps G12V): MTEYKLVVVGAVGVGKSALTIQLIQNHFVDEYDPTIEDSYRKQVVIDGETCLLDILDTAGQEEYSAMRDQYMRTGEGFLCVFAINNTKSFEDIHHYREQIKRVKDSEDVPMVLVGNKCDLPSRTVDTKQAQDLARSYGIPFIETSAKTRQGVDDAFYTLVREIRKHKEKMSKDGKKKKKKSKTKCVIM
KRAS-G12V/RAF1, sequence (P01116-2 other isoform, or with tags, fused parts or gaps G12V): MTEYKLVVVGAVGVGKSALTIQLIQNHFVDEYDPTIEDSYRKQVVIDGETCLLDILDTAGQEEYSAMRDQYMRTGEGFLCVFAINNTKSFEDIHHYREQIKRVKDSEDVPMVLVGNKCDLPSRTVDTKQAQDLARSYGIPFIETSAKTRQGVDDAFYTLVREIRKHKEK

SMILES | GI50 (SW620 cells) [nM] | DC50 (KRAS G12V) [nM] | IC50 (KRAS-G12V/RAF1) [nM]
Cc1cc(N)nc(-c2c(Cl)c3c4c(nc(OCC5(CN6CCC7(CC6)CC(CN6CCN(c8ccc9c(c8)CN([C@H]8CCC(=O)NC8=O)C9=O)CC6)C7)CC5)nc4c2F)N(C(C)c2cccnc2N)CCO3)c1C(F)(F)F (stereo partly drawn) [Compound 5, (3S)-3-(5-(4-((7-((1-(((9-(6-amino-4-methyl-3-(trifluoromethyl)pyridin-2-yl)-4-(1-(2-aminopyridin-3-yl)ethyl)-8-chloro-10-fluoro-5,6-dihydro-4H-[1,4]oxazepino[5,6,7-de]quinazolin-2-yl)oxy)methyl)cyclopropyl)methyl)-7-azaspiro[3.5]nonan-2-yl)methyl)piperazin-1-yl)-1-oxoisoindolin-2-yl)piperidine-2,6-dione] | > 100 | > 100 | –
CCc1c(F)ccc2cc(O)cc(-c3ncc4c(N5CCC[C@@](C)(O)C5)nc(OCC5(CN6CCC(N7CC(CN8CCN(c9ccc(C%10CCC(=O)NC%10=O)cc9)CC8)C7)CC6)CC5)nc4c3F)c12 (stereo partly drawn) [Compound 21, 3-(4-(4-((1-(1-((1-(((7-(8-ethyl-7-fluoro-3-hydroxynaphthalen-1-yl)-8-fluoro-4-((R)-3-hydroxy-3-methylpiperidin-1-yl)pyrido[4,3-d]pyrimidin-2-yl)oxy)methyl)cyclopropyl)methyl)piperidin-4-yl)azetidin-3-yl)methyl)piperazin-1-yl)phenyl)piperidine-2,6-dione] | > 100 | > 100 | –
CCc1c(F)ccc2cc(O)cc(-c3ncc4c(N5CCC[C@@](C)(O)C5)nc(OCC5(CN6CCC7(CC6)CC(CN6Cc8ccc(C9CCC(=O)NC9=O)cc8C6)C7)CC5)nc4c3F)c12 (stereo partly drawn) [Compound 34, 3-(2-((7-((1-(((7-(8-ethyl-7-fluoro-3-hydroxynaphthalen-1-yl)-8-fluoro-4-((R)-3-hydroxy-3-methylpiperidin-1-yl)pyrido[4,3-d]pyrimidin-2-yl)oxy)methyl)cyclopropyl)methyl)-7-azaspiro[3.5]nonan-2-yl)methyl)isoindolin-5-yl)piperidine-2,6-dione] | > 100 | > 100 | –
C[C@@]1(O)CCCN(c2nc(OCC3(CN4CCC5(CCC(N6CCN(c7ccc8c(c7)CN([C@H]7CCC(=O)NC7=O)C8=O)CC6)CC5)CC4)CC3)nc3c(F)c(-c4cc(N)cc5ccc(F)c(F)c45)ncc23)C1 [Compound 35, (S)-3-(5-(4-(3-((1-(((7-(3-amino-7,8-difluoronaphthalen-1-yl)-8-fluoro-4-((R)-3-hydroxy-3-methylpiperidin-1-yl)pyrido[4,3-d]pyrimidin-2-yl)oxy)methyl)cyclopropyl)methyl)-3-azaspiro[5.5]undecan-9-yl)piperazin-1-yl)-1-oxoisoindolin-2-yl)piperidine-2,6-dione] | > 100 | > 100 | –
CCc1c(F)ccc2cc(O)cc(-c3ncc4c(N5CCC[C@@](C)(OC)C5)nc(OCC5(CN6CCC7(CC6)CC(CN6CCN(c8ccc9c(c8)CN([C@H]8CCC(=O)NC8=O)C9=O)CC6)C7)CC5)nc4c3F)c12 [Compound 36, (S)-3-(5-(4-((7-((1-(((7-(8-ethyl-7-fluoro-3-hydroxynaphthalen-1-yl)-8-fluoro-4-((R)-3-methoxy-3-methylpiperidin-1-yl)pyrido[4,3-d]pyrimidin-2-yl)oxy)methyl)cyclopropyl)methyl)-7-azaspiro[3.5]nonan-2-yl)methyl)piperazin-1-yl)-1-oxoisoindolin-2-yl)piperidine-2,6-dione] | > 100 | > 100 | –
CCc1c(F)ccc2cc(O)cc(-c3ncc4c(N5CCCNC(=O)C5)nc(OCC5(CN6CCC7(CC6)CC(CN6CCN(c8ccc9c(c8)CN([C@H]8CCC(=O)NC8=O)C9=O)CC6)C7)CC5)nc4c3F)c12 [Compound 93, (S)-3-(5-(4-((7-((1-(((7-(8-ethyl-7-fluoro-3-hydroxynaphthalen-1-yl)-8-fluoro-4-(3-oxo-1,4-diazepan-1-yl)pyrido[4,3-d]pyrimidin-2-yl)oxy)methyl)cyclopropyl)methyl)-7-azaspiro[3.5]nonan-2-yl)methyl)piperazin-1-yl)-1-oxoisoindolin-2-yl)piperidine-2,6-dione] | > 100 | > 100 | –
CCc1c(F)ccc2cc(O)cc(-c3ncc4c(N5CCC[C@@](C)(O)C5)nc(OCC5(CN6CCC7(CC6)CC(F)(C6CCN(c8ccc9c(c8)CN(C8CCC(=O)NC8=O)C9=O)CC6)C7)CC5)nc4c3F)c12 (stereo partly drawn) [Compound 185, 3-(5-(4-(7-((1-(((7-(8-ethyl-7-fluoro-3-hydroxynaphthalen-1-yl)-8-fluoro-4-((R)-3-hydroxy-3-methylpiperidin-1-yl)pyrido[4,3-d]pyrimidin-2-yl)oxy)methyl)cyclopropyl)methyl)-2-fluoro-7-azaspiro[3.5]nonan-2-yl)piperidin-1-yl)-1-oxoisoindolin-2-yl)piperidine-2,6-dione] | – | > 100 | 20 to 200

The next molecules have a lower DC50 (KRAS G12V) than those just listed; values first:

GI50 (SW620 cells) [nM] | DC50 (KRAS G12V) [nM] | IC50 (KRAS-G12V/RAF1) [nM] | SMILES
< 10 | 1 to 10 | – | CCc1c(F)ccc2cc(O)cc(-c3ncc4c(N5CCCC6(CCO6)C5)nc(OCC5(CN6CCC(CN7CC(N8CCN(c9ccc%10c(c9)CN([C@H]9CCC(=O)NC9=O)C%10=O)CC8)C7)CC6)CC5)nc4c3F)c12 (stereo partly drawn) [Compound 37, (3S)-3-(5-(4-(1-((1-((1-(((7-(8-ethyl-7-fluoro-3-hydroxynaphthalen-1-yl)-8-fluoro-4-(1-oxa-6-azaspiro[3.5]nonan-6-yl)pyrido[4,3-d]pyrimidin-2-yl)oxy)methyl)cyclopropyl)methyl)piperidin-4-yl)methyl)azetidin-3-yl)piperazin-1-yl)-1-oxoisoindolin-2-yl)piperidine-2,6-dione]
< 10 | 1 to 10 | – | CCc1c(F)ccc2cc(O)cc(-c3ncc4c(N5CCC[C@]6(CCO6)C5)nc(OCC5(CN6CC7(CCC(N8CCN(c9cc(F)c(C%10CCC(=O)NC%10=O)c(F)c9)CC8)CC7)C6)CC5)nc4c3F)c12 (stereo partly drawn) [Compound 85, 3-(4-(4-(2-((1-(((7-(8-ethyl-7-fluoro-3-hydroxynaphthalen-1-yl)-8-fluoro-4-((S)-1-oxa-6-azaspiro[3.5]nonan-6-yl)pyrido[4,3-d]pyrimidin-2-yl)oxy)methyl)cyclopropyl)methyl)-2-azaspiro[3.5]nonan-7-yl)piperazin-1-yl)-2,6-difluorophenyl)piperidine-2,6-dione]
< 10 | 1 to 10 | – | CCc1c(F)ccc2cc(O)cc(-c3ncc4c(N5CCC[C@@](C)(O)C5)nc(OCC5(CN6CC7(CC(N8CCN(c9ccc%10c(c9)CN([C@H]9CCC(=O)NC9=O)C%10=O)CC8)C7)C6)CC5)nc4c3F)c12 [Compound 122, (S)-3-(5-(4-(2-((1-(((7-(8-ethyl-7-fluoro-3-hydroxynaphthalen-1-yl)-8-fluoro-4-((R)-3-hydroxy-3-methylpiperidin-1-yl)pyrido[4,3-d]pyrimidin-2-yl)oxy)methyl)cyclopropyl)methyl)-2-azaspiro[3.3]heptan-6-yl)piperazin-1-yl)-1-oxoisoindolin-2-yl)piperidine-2,6-dione]
< 10 | < 1 | – | C[C@@]1(O)CCCN(c2nc(OCC3(CN4CCC(CN5CCN(c6ccc7c(c6)CN([C@H]6CCC(=O)NC6=O)C7=O)CC5)CC4)CC3)nc3c(F)c(-c4cc(O)cc5ccc(F)c(Cl)c45)ncc23)C1 [Compound 156, (S)-3-(5-(4-((1-((1-(((7-(8-chloro-7-fluoro-3-hydroxynaphthalen-1-yl)-8-fluoro-4-((R)-3-hydroxy-3-methylpiperidin-1-yl)pyrido[4,3-d]pyrimidin-2-yl)oxy)methyl)cyclopropyl)methyl)piperidin-4-yl)methyl)piperazin-1-yl)-1-oxoisoindolin-2-yl)piperidine-2,6-dione]
